Data: ChEMBL document CHEMBL6120970, “Discovery and Functional Characterization of a Potent, Selective, and Metabolically Stable PROTAC of the Protein Kinases DYRK1A and DYRK1B” (J Med Chem, 2024)
Calls of active or inactive are those of the source. No cut-off for these calls is given here.

Tests used:
[1] = molecular target: T1, Protein cereblon/Dual specificity tyrosine-phosphorylation-regulated kinase 1A (Homo sapiens, UniProt Q13627+Q96SW2); assay: Competitive binding affinity to CRBN/DYRK1A (unknown origin) assessed as dissociation constant; format: protein assay
[2] = molecular target: Protein cereblon/Dual specificity tyrosine-phosphorylation-regulated kinase 1B (Homo sapiens, UniProt Q96SW2+Q9Y463); assay: Competitive binding affinity to CRBN/DYRK1B (unknown origin) assessed as dissociation constant; format: protein assay
[3] = molecular target: T1, Protein cereblon/Dual specificity tyrosine-phosphorylation-regulated kinase 1A; assay: PROTAC activity at CRBN/HibiT-tagged DYRK1A in Flp-In-T-REx-293 cells assessed as induction of degradation of DYRK1A by measuring maximum efficacy at 0.3 uM measured after 24 hrs by NanoBiT luciferase assay relative to control; format: cell-based
[4] = molecular target: T2, Protein cereblon/Dual specificity tyrosine-phosphorylation-regulated kinase 1B (Homo sapiens) (UniProt Q9Y463+Q96SW2); assay: PROTAC activity at CRBN/HibiT-tagged DYRK1B in Flp-In-T-REx-293 cells assessed as induction of degradation of DYRK1B by measuring maximum efficacy at 0.3 uM measured after 24 hrs by NanoBiT luciferase assay relative to control; format: cell-based
[5] = molecular target: von Hippel-Lindau disease tumor suppressor/Dual specificity tyrosine-phosphorylation-regulated kinase 1A (Homo sapiens, UniProt P40337+Q13627); assay: Competitive binding affinity to VHL/DYRK1A (unknown origin) assessed as dissociation constant by competition binding assay; format: protein assay
[6] = molecular target: von Hippel-Lindau disease tumor suppressor/Dual specificity tyrosine-phosphorylation-regulated kinase 1B (Homo sapiens, UniProt P40337+Q9Y463); assay: Competitive binding affinity to VHL/DYRK1B (unknown origin) assessed as dissociation constant; format: protein assay
[7] = molecular target: von Hippel-Lindau disease tumor suppressor/Dual specificity tyrosine-phosphorylation-regulated kinase 1A (Homo sapiens) (UniProt Q13627+P40337); assay: PROTAC activity at VHL/HibiT-tagged DYRK1A in Flp-In-T-REx-293 cells assessed as induction of degradation of DYRK1A by measuring maximum efficacy at 0.3 uM measured after 24 hrs by NanoBiT luciferase assay relative to control; format: cell-based
[8] = molecular target: von Hippel-Lindau disease tumor suppressor/Dual specificity tyrosine-phosphorylation-regulated kinase 1B (Homo sapiens) (UniProt Q9Y463+P40337); assay: PROTAC activity at VHL/HibiT-tagged DYRK1B in Flp-In-T-REx-293 cells assessed as induction of degradation of DYRK1B by measuring maximum efficacy at 0.3 uM measured after 24 hrs by NanoBiT luciferase assay relative to control; format: cell-based
[9] = molecular target: T1, Protein cereblon/Dual specificity tyrosine-phosphorylation-regulated kinase 1A; assay: PROTAC activity at CRBN/HibiT-tagged DYRK1A in Flp-In-T-REx-293 cells assessed as induction of degradation of DYRK1A by measuring maximum efficacy at 1 uM measured after 24 hrs by NanoBiT luciferase assay relative to control; format: cell-based
[10] = molecular target: T2, Protein cereblon/Dual specificity tyrosine-phosphorylation-regulated kinase 1B (Homo sapiens); assay: PROTAC activity at CRBN/HibiT-tagged DYRK1B in Flp-In-T-REx-293 cells assessed as induction of degradation of DYRK1B by measuring maximum efficacy at 1 uM measured after 24 hrs by NanoBiT luciferase assay relative to control; format: cell-based
[11] = molecular target: Protein cereblon/DNA damage-binding protein 1 (Homo sapiens, UniProt Q96SW2); assay: Displacement of Cy5-tagged thalidomide-like probe from recombinant CRBN/DDB1 (unknown origin) by competitive binding assay; format: protein assay
[12] = molecular target: T1, Protein cereblon/Dual specificity tyrosine-phosphorylation-regulated kinase 1A; assay: PROTAC activity at CRBN/HibiT-tagged DYRK1A in Flp-In-T-REx-293 cells assessed as induction of degradation of DYRK1A at 1 uM by measured after 24 hrs by NanoBiT luciferase assay; format: cell-based
[13] = molecular target: T1, Protein cereblon/Dual specificity tyrosine-phosphorylation-regulated kinase 1A; assay: PROTAC activity at CRBN/HibiT-tagged DYRK1A in Flp-In-T-REx-293 cells assessed as induction of degradation of DYRK1A at 100 nM by measured after 24 hrs by NanoBiT luciferase assay; format: cell-based
[14] = molecular target: T1, Protein cereblon/Dual specificity tyrosine-phosphorylation-regulated kinase 1A; assay: PROTAC activity at CRBN/DYRK1A in HEK293 cells expressing GFP-SF3B1 assessed as inhibition of SF3B1 phosphorylation at 10 to 100 nM measured for 24 hrs by Western blot analysis; format: cell-based; settings: dose 10-100 nM
[15] = molecular target: T3, Dual specificity tyrosine-phosphorylation-regulated kinase 1A (Homo sapiens, UniProt Q13627); assay: Binding affinity to DYRK1A (unknown origin) assessed as dissociation constant
[16] = molecular target: T3, Dual specificity tyrosine-phosphorylation-regulated kinase 1A; assay: Binding affinity to human wild type partial length DYRK1A (H129 to S509 residues) expressed in mammalian expression system at 1 uM by kinome scan assay relative to control
[17] = molecular target: T4, Serine/threonine-protein kinase haspin (Homo sapiens) (UniProt Q8TF76); assay: Binding affinity to human wild type partial length Haspin (I452 to K798 residues) expressed in mammalian expression system at 1 uM by kinome scan assay relative to control
T4 sequence (whole entry): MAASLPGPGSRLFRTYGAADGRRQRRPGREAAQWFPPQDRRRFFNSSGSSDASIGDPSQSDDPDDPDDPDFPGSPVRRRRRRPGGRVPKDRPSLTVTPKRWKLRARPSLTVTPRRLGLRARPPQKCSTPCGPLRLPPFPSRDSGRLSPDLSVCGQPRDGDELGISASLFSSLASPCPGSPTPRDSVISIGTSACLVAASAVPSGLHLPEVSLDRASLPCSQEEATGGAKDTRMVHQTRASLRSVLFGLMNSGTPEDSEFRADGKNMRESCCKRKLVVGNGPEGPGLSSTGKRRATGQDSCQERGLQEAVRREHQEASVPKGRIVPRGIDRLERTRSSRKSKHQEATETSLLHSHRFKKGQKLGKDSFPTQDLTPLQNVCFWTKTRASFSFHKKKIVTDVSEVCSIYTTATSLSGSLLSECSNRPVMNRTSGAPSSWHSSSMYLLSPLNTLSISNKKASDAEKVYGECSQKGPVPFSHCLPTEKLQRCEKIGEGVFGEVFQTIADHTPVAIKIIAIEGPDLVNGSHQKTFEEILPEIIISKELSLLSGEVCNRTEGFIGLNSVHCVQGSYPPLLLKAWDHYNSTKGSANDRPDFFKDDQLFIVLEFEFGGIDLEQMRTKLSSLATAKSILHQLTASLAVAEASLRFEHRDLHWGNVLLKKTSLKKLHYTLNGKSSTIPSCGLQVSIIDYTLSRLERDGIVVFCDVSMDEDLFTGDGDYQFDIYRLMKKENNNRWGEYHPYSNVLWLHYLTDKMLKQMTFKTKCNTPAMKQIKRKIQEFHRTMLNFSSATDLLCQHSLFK

[18] = molecular target: Casein kinase I isoform epsilon (Homo sapiens) (UniProt P49674); assay: Binding affinity to human wild type full length CSNK1E (M1 to K416 residues) expressed in Bacterial expression system at 1 uM by kinome scan assay relative to control
[19] = molecular target: Homeodomain-interacting protein kinase 2 (Homo sapiens) (UniProt Q9H2X6); assay: Binding affinity to human wild type partial length HIPK2 (M153 to S564 residues) expressed in mammalian expression system at 1 uM by kinome scan assay relative to control
[20] = molecular target: Dual specificity protein kinase CLK1 (Homo sapiens) (UniProt P49759); assay: Binding affinity to human wild type full length CLK1 (M1 to I484 residues) expressed in Bacterial expression system at 1 uM by kinome scan assay relative to control
[21] = molecular target: Homeodomain-interacting protein kinase 3 (Homo sapiens) (UniProt Q9H422); assay: Binding affinity to human wild type partial length HIPK3 (M153 to N562 residues) expressed in mammalian expression system at 1 uM by kinome scan assay relative to control
[22] = molecular target: Homeodomain-interacting protein kinase 3 (Homo sapiens) (UniProt Q9H422); assay: Binding affinity to human wild type full length HIPK3 (M1 to L344 residues) expressed in mammalian expression system at 1 uM by kinome scan assay relative to control

Kd [1] | Kd [2] | Emax [9] | Emax [10] | Structure (SMILES) | other results
1.4 nM | 2.4 nM | – | – | Cc1nc2ccc(-c3ccnc(N)c3)nc2n1-c1ccc(N2CCN(CCOCCNc3cccc4c3C(=O)N(C3CCC(=O)NC3=O)C4=O)CC2)c(F)c1 (stereo not drawn) | Emax [3]: 40%; Emax [4]: 0%
– | – | – | – | Cc1ncsc1-c1ccc(CNC(=O)[C@@H]2C[C@@H](O)CN2C(=O)[C@@H](NC(=O)CCOCCN2CCN(c3ccc(-n4c(C)nc5ccc(-c6ccnc(N)c6)nc54)cc3F)CC2)C(C)(C)C)cc1 | Kd [5]: 3.4 nM; Kd [6]: 5.5 nM; Emax [7]: 11%; Emax [8]: 0%
1.7 nM | 5.2 nM | 75% | 54% | Cc1nc2ccc(-c3ccnc(N)c3)nc2n1-c1ccc(N2CCN(C(=O)CCCN3CCN(Cc4ccc(CNc5cccc6c5CN(C5CCC(=O)NC5=O)C6=O)cc4)CC3)CC2)c(F)c1 (stereo not drawn) | –
13 nM | 43 nM | 80% | 58% | Cc1nc2ccc(-c3ccnc(N)c3)nc2n1-c1ccc(N2CCN(CCOCCOCCOCCOCCNc3cc4c(cc3F)C(=O)N(C3CCC(=O)NC3=O)C4=O)CC2)c(F)c1 (stereo not drawn) | –
– | – | – | – | O=C1CCC(N2C(=O)c3cccc(NCc4cnn(C5CCN(C(=O)C6CCN(c7ccccn7)CC6)CC5)c4)c3C2=O)C(=O)N1 (stereo not drawn) | IC50 [11]: 13300 nM
2.8 nM | 5.1 nM | 79% | 63% | Cc1nc2ccc(-c3ccnc(N)c3)nc2n1-c1ccc(N2CCN(C(=O)CCCN3CCC(n4cc(CNc5cccc6c5C(=O)N(C5CCC(=O)NC5=O)C6=O)cn4)CC3)CC2)c(F)c1 (stereo not drawn) | –
20 nM | 47 nM | 24% | 14% | Cc1nc2ccc(-c3ccnc(N)c3)nc2n1-c1ccc(N2CCN(C(=O)CCN3CCN(Cc4ccc(CNc5cccc6c5CN(C5CCC(=O)NC5=O)C6=O)cc4)CC3)CC2)c(F)c1 (stereo not drawn) | –
– | – | – | – | Cc1ncsc1-c1ccc(CNC(=O)[C@@H]2C[C@@H](O)CN2C(=O)[C@@H](NC(=O)CCOCCOCCOCCOCCN2CCN(c3ccc(-n4c(C)nc5ccc(-c6ccnc(N)c6)nc54)cc3F)CC2)C(C)(C)C)cc1 | Kd [5]: 1.4 nM; Kd [6]: 6.6 nM; Emax [7]: 0%; Emax [8]: 0%
– | – | – | – | Cc1nc2ccc(-c3ccnc(N)c3)nc2n1-c1ccc(N2CCN(CC#Cc3ccc(N4CCC(C(=O)N5CCC(n6cc(CNc7cccc8c7C(=O)N(C7CCC(=O)N(C)C7=O)C8=O)cn6)CC5)CC4)nc3)CC2)c(F)c1 (stereo not drawn) | Activity [12]: Active; Compound Showed Modest Degradation; Activity [13]: inactive; Activity [14]: Active; Compound Partially Suppress The Phosphorylation
– | – | – | – | Cc1ncsc1-c1ccc(CNC(=O)[C@@H]2C[C@@H](O)CN2C(=O)[C@@H](NC(=O)CCOCCOCCN2CCN(c3ccc(-n4c(C)nc5ccc(-c6ccnc(N)c6)nc54)cc3F)CC2)C(C)(C)C)cc1 | Kd [5]: 2.2 nM; Kd [6]: 6.9 nM; Emax [7]: 5%; Emax [8]: 2%
– | – | – | – | Cc1nc2ccc(-c3ccnc(N)c3)nc2n1-c1ccc(N2CCN(C)CC2)cc1F | Kd [15]: 0.91 nM; Activity [16]: 0%; Activity [17]: 0.2%; Activity [18]: 0.3%; Activity [19]: 0.3%; Activity [20]: 0.5%; Activity [21]: 0.7%; Activity [22]: 0.7%
5.6 nM | 16 nM | 0% | 0% | Cc1nc2ccc(-c3ccnc(N)c3)nc2n1-c1ccc(N2CCN(CCOCCOCCOCCC(=O)N3CCN(Cc4ccc(CNc5cccc6c5CN(C5CCC(=O)NC5=O)C6=O)cc4)CC3)CC2)c(F)c1 (stereo not drawn) | –
3.2 nM | – | 27% | 0% | Cc1nc2ccc(-c3ccnc(N)c3)nc2n1-c1ccc(N2CCN(CCOCCOCCOCCC(=O)NC3CN(c4ccc5c(c4)C(=O)N(C4CCC(=O)NC4=O)C5=O)C3)CC2)c(F)c1 (stereo not drawn) | –
2.3 nM | 3.4 nM | – | – | Cc1nc2ccc(-c3ccnc(N)c3)nc2n1-c1ccc(N2CCN(CCOCCOCCOCCNc3cccc4c3C(=O)N(C3CCC(=O)NC3=O)C4=O)CC2)c(F)c1 (stereo not drawn) | Emax [3]: 60%; Emax [4]: 28%
5.9 nM | – | 9% | 0% | Cc1nc2ccc(-c3ccnc(N)c3)nc2n1-c1ccc(N2CCN(CCOCCOCCOCCC(=O)N3CCN(c4ccc5c(c4)C(=O)N(C4CCC(=O)NC4=O)C5=O)CC3)CC2)c(F)c1 (stereo not drawn) | –
3.3 nM | 8.4 nM | 63% | 38% | Cc1nc2ccc(-c3ccnc(N)c3)nc2n1-c1ccc(N2CCN(C(=O)CCCCN3CCN(Cc4ccc(CNc5cccc6c5CN(C5CCC(=O)NC5=O)C6=O)cc4)CC3)CC2)c(F)c1 (stereo not drawn) | –
1.4 nM | 3.5 nM | – | – | Cc1nc2ccc(-c3ccnc(N)c3)nc2n1-c1ccc(N2CCN(CCOCCOCCNc3cccc4c3C(=O)N(C3CCC(=O)NC3=O)C4=O)CC2)c(F)c1 (stereo not drawn) | Emax [3]: 52%; Emax [4]: 25%
– | – | – | – | Cc1ncsc1-c1ccc(CNC(=O)[C@@H]2C[C@@H](O)CN2C(=O)[C@@H](NC(=O)CCOCCOCCOCCN2CCN(c3ccc(-n4c(C)nc5ccc(-c6ccnc(N)c6)nc54)cc3F)CC2)C(C)(C)C)cc1 | Kd [5]: 1.3 nM; Kd [6]: 3.6 nM; Emax [7]: 0%; Emax [8]: 0%
0.64 nM | – | 78% | 65% | Cc1nc2ccc(-c3ccnc(N)c3)nc2n1-c1ccc(N2CCN(C(=O)CN3CCC(CC(=O)N4CCC(n5cc(CNc6cccc7c6C(=O)N(C6CCC(=O)NC6=O)C7=O)cn5)CC4)CC3)CC2)c(F)c1 (stereo not drawn) | –
